Consider 6 molecules from US8293261B2, “Intravascular implant” (Terumo Kabushiki Kaisha, priority 2005, dated 2012).

Broadly, the IC50 is the midpoint of a concentration-inhibition curve. A lower IC50 goes with greater potency in that assay.

This series relates to human vascular smooth muscle cells. In kind it is cell-based. The settings on record: for IC50: human vascular smooth muscle cells, 48 hours with substance, WST-1 absorbance at 450 nm. As to the method: Substances indicated in Table 1 were used to carry out a cell cytotoxicity test using human vascular smooth muscle cells.
More particularly, human vascular smooth muscle cells were implanted into individual wells of a 96-well microtitor plate along with a culture solution (commercial name: SmGM-2 Bullet kit, made by Cambrex Corporation), followed by cultivation in a carbon dioxide gas incubator at 37° C. for 48 hours. The culture solution dissolving MgCl2 that was used as a chemical substance to be tested was added thereto in every […] so that a final concentration was at 1×10^−7 to 10^−1 M, followed by cultivation for further 48 hours.
Next, WST-1 (La Roche Ltd.) was added, followed by cultivation for 4 hours. WST-1 taken in the human vascular smooth muscle cells was extracted, and the absorbance at 450 nm of the resulting extract was measured by means of a microreader (commercial name: iEMS reader MF, made by Labsystems Inc.). It will be noted that WST-1 taken in the human vascular smooth muscle cells emits light when oxidized and reduced by means of an electron transmission system of mitochondria. Accordingly, WST-1 emits light by reaction only with living cells.
A graph was made wherein an abscissa indicates a concentration of a chemical substance to be subjected to the cytotoxicity test and an ordinate indicates a ratio of a quantity of emitted light of cells subjected to treatment with a chemical substance to be tested to a quantity of emitted light of non-treated cells for reference. The degree of cell cytotoxicity was quantified as a concentration of a chemical substance (IC50 value) at which a ratio of a quantity of a dye taken in the treated cells to a quantity of a dye taken in non-treated cells was at 50%.
Such a test was carried out with respect to other types of chemical substances (NdCl2, GdCl2, Ycl3, CrCl2, and NiCl2) to be subjected to the cytotoxicity test to likewise obtain IC50 values.
(Tetrazolium dyes change colour on reduction, which living cells bring about.)

Molecules are shown by their SMILES.

Consider `[Cl][Cr][Cl]` [CrCl2], for which the IC50 is 0.11 mM. Regarding `[Cl][Gd][Cl]` [GdCl2], the “cell cytotoxicity (in words)” value was “very low” and the concentration for half-maximal inhibition (IC50) stood at 81 mM. With `[Cl-].[Cl-].[Mg+2]` [MgCl2], the “cell cytotoxicity (in words)” value is “very low” and half-maximal inhibition (IC50) was put at 34 mM. For `[Cl-].[Cl-].[Nd+2]` [NdCl2], the “cell cytotoxicity (in words)” value is “very low” and the 50% inhibitory concentration (IC50) came to 74 mM. In turn, `[Cl][Ni][Cl]` [NiCl2] showed an IC50 of 0.75 mM.

In turn, `[Cl-].[Cl-].[Cl-].[Y+3]` [Ycl3] had a concentration for half-maximal inhibition (IC50) of 0.36 mM.
